Legend:
MDA-MB-231/ATCC = test: NCI in vitro 60-cell drug screen (SRB assay); type: cell-based; conditions: MDA-MB-231/ATCC (Breast cancer); 10^-5 molar concentration; 48 hours
U251 = test: NCI in vitro 60-cell drug screen (SRB assay); type: cell-based; conditions: U251 (CNS cancer); 10^-5 molar concentration; 48 hours
KM12 = test: NCI in vitro 60-cell drug screen (SRB assay); type: cell-based; conditions: KM12 (Colon cancer); 10^-5 molar concentration; 48 hours
ACHN = test: NCI in vitro 60-cell drug screen (SRB assay); type: cell-based; conditions: ACHN (Renal cancer); 10^-5 molar concentration; 48 hours
MALME-3M = test: NCI in vitro 60-cell drug screen (SRB assay); type: cell-based; conditions: MALME-3M (Melanoma); 10^-5 molar concentration; 48 hours
HT29 = test: NCI in vitro 60-cell drug screen (SRB assay); type: cell-based; conditions: HT29 (Colon cancer); 10^-5 molar concentration; 48 hours
RPMI-8226 = test: NCI in vitro 60-cell drug screen (SRB assay); type: cell-based; conditions: RPMI-8226 (Leukemia); 10^-5 molar concentration; 48 hours
SNB-19 = test: NCI in vitro 60-cell drug screen (SRB assay); type: cell-based; conditions: SNB-19 (CNS cancer); 10^-5 molar concentration; 48 hours
SR = test: NCI in vitro 60-cell drug screen (SRB assay); type: cell-based; conditions: SR (Leukemia); 10^-5 molar concentration; 48 hours
SK-MEL-28 = test: NCI in vitro 60-cell drug screen (SRB assay); type: cell-based; conditions: SK-MEL-28 (Melanoma); 10^-5 molar concentration; 48 hours
NCI-H322M = test: NCI in vitro 60-cell drug screen (SRB assay); type: cell-based; conditions: NCI-H322M (Non-small cell lung cancer); 10^-5 molar concentration; 48 hours
PC-3 = test: MTT assay for cell cytotoxicity; type: cell-based, human; conditions: Homo sapiens, 72 h, at least three independent experiments, read-out: MTT assay (IC50 ± SD) PC-3
DU-145 = test: MTT assay for cell cytotoxicity; type: cell-based, human; conditions: Homo sapiens, 72 h, at least three independent experiments, read-out: MTT assay (IC50 ± SD) DU-145
How it was run: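 Seeded cells pre-incubated 24 h, then treated 72 h with 0.15–15 µM compound in RPMI-1640/5% FBS at 37 °C. MTT (1 mg/mL) added for 4 h, formazan dissolved in DMSO, absorbance at 560 nm; IC50 from mean of ≥3 independent experiments.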

MDA-MB-486 = test: NCI in vitro 60-cell drug screen (SRB assay); type: cell-based; conditions: MDA-MB-486 (Breast cancer); 10^-5 molar concentration; 48 hours
OVCAR-4 = test: NCI in vitro 60-cell drug screen (SRB assay); type: cell-based; conditions: OVCAR-4 (Ovarian cancer); 10^-5 molar concentration; 48 hours
HOP-92 = test: NCI in vitro 60-cell drug screen (SRB assay); type: cell-based; conditions: HOP-92 (Non-small cell lung cancer); 10^-5 molar concentration; 48 hours
M14 = test: NCI in vitro 60-cell drug screen (SRB assay); type: cell-based; conditions: M14 (Melanoma); 10^-5 molar concentration; 48 hours
786-0 = test: NCI in vitro 60-cell drug screen (SRB assay); type: cell-based; conditions: 786-0 (Renal cancer); 10^-5 molar concentration; 48 hours
SW-620 = test: NCI in vitro 60-cell drug screen (SRB assay); type: cell-based; conditions: SW-620 (Colon cancer); 10^-5 molar concentration; 48 hours
OVCAR-8 = test: NCI in vitro 60-cell drug screen (SRB assay); type: cell-based; conditions: OVCAR-8 (Ovarian cancer); 10^-5 molar concentration; 48 hours
RXF 393 = test: NCI in vitro 60-cell drug screen (SRB assay); type: cell-based; conditions: RXF 393 (Renal cancer); 10^-5 molar concentration; 48 hours
NCI-H460 = test: NCI in vitro 60-cell drug screen (SRB assay); type: cell-based; conditions: NCI-H460 (Non-small cell lung cancer); 10^-5 molar concentration; 48 hours
SK-MEL-2 = test: NCI in vitro 60-cell drug screen (SRB assay); type: cell-based; conditions: SK-MEL-2 (Melanoma); 10^-5 molar concentration; 48 hours
HCC-2998 = test: NCI in vitro 60-cell drug screen (SRB assay); type: cell-based; conditions: HCC-2998 (Colon cancer); 10^-5 molar concentration; 48 hours
MOLT-4 = test: NCI in vitro 60-cell drug screen (SRB assay); type: cell-based; conditions: MOLT-4 (Leukemia); 10^-5 molar concentration; 48 hours

| SMILES | Growth percent (MDA-MB-231/ATCC) [%] | Growth percent (U251) [%] | Growth percent (KM12) [%] | Growth percent (ACHN) [%] | Growth percent (MALME-3M) [%] | Growth percent (HT29) [%] | Growth percent (RPMI-8226) [%] | Growth percent (SNB-19) [%] | Growth percent (SR) [%] | Growth percent (SK-MEL-28) [%] | Growth percent (NCI-H322M) [%] | IC50 (PC-3) [µM] | IC50 (DU-145) [µM] | Growth percent (MDA-MB-486) [%] | Growth percent (HOP-92) [%] | Growth percent (M14) [%] | Growth percent (786-0) [%] | Growth percent (SW-620) [%] | Growth percent (OVCAR-8) [%] | Growth percent (RXF 393) [%] | also measured |
| --- | --- | --- | --- | --- | --- | --- | --- | --- | --- | --- | --- | --- | --- | --- | --- | --- | --- | --- | --- | --- | --- |
| O=c1c2ccc(Cl)cc2sc2c(Cl)nc3ccccc3c12 [Compound 3, 6,9-Dichloro-12H-thiochromeno[2,3-c]quinolin-12-one] | 84.28 | 101.71 | 111.27 | 86.84 | 95.87 | 99.73 | 100.19 | 107.89 | 89.02 | 101.80 | 100.12 | > 15 | > 15 | 98.57 | 90.83 | 106.18 | 105.25 | 99.06 | 101.62 | 102.55 | Growth percent (OVCAR-4): 87.91%; Growth percent (NCI-H460): 103.14%; Growth percent (SK-MEL-2): 95.54%; Growth percent (HCC-2998): 123.28%; Growth percent (MOLT-4): 98.04% |
| O=c1c2cc(Cl)ccc2sc2c(O)nc3ccccc3c12 [Compound 4, 10-Chloro-6-hydroxy-12H-thiochromeno[2,3-c]quinolin-12-one] | 81.80 | 101.85 | 102.45 | 95.52 | 93.26 | 96.78 | 100.99 | 101.37 | 96.00 | 116.59 | 90.87 | 10.1 ± 1.81 | > 15 | 100.33 | 93.13 | 94.76 | 99.76 | 101.39 | 100.55 | 116.94 | Growth percent (NCI-H460): 96.92%; Growth percent (SK-MEL-2): 103.04%; Growth percent (HCC-2998): 101.48%; Growth percent (MOLT-4): 100.41% |
| COc1nc2ccccc2c2c(=O)c3cc(Cl)ccc3sc12 [Compound 5, 10-Chloro-6-methoxy-12H-thiochromeno[2,3-c]quinolin-12-one] | 78.12 | 99.18 | 98.03 | 74.89 | 94.19 | 102.69 | 102.86 | 89.36 | 88.18 | 112.31 | 90.77 | 3.89 ± 0.54 | 10.8 ± 6.55 | 103.54 | 80.11 | 88.40 | 99.15 | 103.05 | 91.82 | 109.68 | Growth percent (NCI-H460): 101.23%; Growth percent (SK-MEL-2): 105.52%; Growth percent (HCC-2998): 104.67%; Growth percent (MOLT-4): 80.62% |
| CN(C)c1nc2ccccc2c2c(=O)c3cc(Cl)ccc3sc12 [Compound 6, 10-Chloro-6-dimethylamino-12H-thiochromeno[2,3-c]quinolin-12-one] | 71.03 | 93.55 | 96.40 | 64.81 | 89.70 | 87.73 | 98.20 | 76.46 | 95.68 | 96.60 | 83.74 | > 15 | > 15 | 29.91 | 58.65 | 94.36 | 87.00 | 105.18 | 68.53 | 83.17 | Growth percent (NCI-H460): 88.86%; Growth percent (SK-MEL-2): 87.26%; Growth percent (HCC-2998): 97.20%; Growth percent (MOLT-4): 97.52% |
| CN1CCN(c2nc3ccccc3c3c(=O)c4cc(Cl)ccc4sc23)CC1 [Compound 8, 10-Chloro-6-(4-methylpiperazin-1-yl)-12H-thiochromeno[2,3-c]q uinolin-12-one] | 57.30 | 92.52 | 110.71 | 89.73 | 108.36 | 78.65 | 91.11 | 87.07 | 86.41 | 107.92 | 77.04 | 7.18 ± 2.45 | 12.9 ± 0.26 | 102.02 | 17.97 | 102.15 | 90.48 | 95.50 | 89.44 | 88.57 | Growth percent (OVCAR-4): 94.93%; Growth percent (NCI-H460): 96.05%; Growth percent (SK-MEL-2): 97.53%; Growth percent (HCC-2998): 96.87%; Growth percent (MOLT-4): 87.97% |
